System: A549 cells
Assay: In vitro cytotoxicity screening with median-effect (combination index) analysis of irinotecan and carboplatin
Type: cell-based
Conditions: single drug versus irinotecan plus carboplatin combination
Description: As shown, therapeutic agents A and B are tested individually and together at two different ratios for their ability to cause cell death or cell stasis. In these experiments cell death or stasis was assessed using the MTT (3-[4,5-dimethylthiazol-2-yl]-2,5-diphenyltetrazolium) assay described below. Briefly, the dye MTT is reduced by living cells, producing a measurable change in optical density that is correlated to cell viability.
Correlations between the concentration of therapeutic agents A and B, and the two different combination ratios (Y:Z and X:Y) are plotted against cytotoxicity. Cytotoxicity is calculated as a percentage of surviving cells based on the survival of untreated control cells. […] Once this correlation has been established, the cell survival or fraction affected (fa) is used as a surrogate for concentration in calculating the CI.
The Chou-Talalay median-effect method is preferred. The analysis utilizes an equation wherein the dose that causes a particular effect, fa, is given by: D=Dm[fa/(1−fa)]^1/m in which D is the dose of the drug used, fa is the fraction of cells affected by that dose, Dm is the dose for median effect signifying the potency and m is a coefficient representing the shape of the dose-effect curve (m is 1 for first order reactions). […]

N.N.O=C([O-])C1(C(=O)[O-])CCC1.[Pt+2] [carboplatin]
Concentration required to achieve a 90% cell kill on its own compared with the concentration required when combined at a non-antagonistic ratio: significantly higher

CCc1c2c(nc3ccc(OC(=O)N4CCC(N5CCCCC5)CC4)cc13)-c1cc3c(c(=O)n1C2)COC(=O)[C@]3(O)CC [irinotecan]
Concentration required to achieve a 90% cell kill on its own compared with the concentration required when combined at a non-antagonistic ratio: significantly higher

From patent US20060228694A1, “Methods to individualize combination therapy” (priority 2003, published 2006)
